A short description of assay [1]: Free radical scavenging activity test (DPPH method, anti-oxidative activity). The format is physicochemical. The settings on record: 30 min, absorbance 517 nm. As to the method:
A representative antioxidant, vitamin C (Sigma) was used as a positive control, and the galloyl-tetrapeptide and digalloyl-tetrapeptide according to the present invention were mixed with 1,1-diphenyl-2-picrylhydrazyl (DPPH, Sigma) producing free radicals in ethanol to determine the reduced amounts of the produced free radicals. […] The resulting solution was vigorously vortexed for 10 sec, kept at a dark cold place for 30 min, and then its absorbance was measured at 517 nm by ELISA method. The anti-oxidative activity (free radical scavenging activity) was calculated according to the following formula 2 by using the absorbance of pure water as a control, and expressed as a percentage. [formula]

For the next assay, the system named is mushroom tyrosinase. Kind of assay: Inhibition effect on tyrosinase activity. The class given is biochemical. The note with it: test compound 100 μM; L-tyrosine substrate; pH 6.8; 37° C., 20 min; absorbance 490 nm. As for the experimental part: Inhibition effects of the prepared compounds were measured by the known method (see: Pomerantz S. H., J. Biochem., 24:161-168, 1966).
The test compounds were prepared to a final concentration of 100 μM and put into a 96-well plate, and 220 μl of 100 mM sodium phosphate buffer (pH 6.8) and 40 μl of 1.5 mM L-tyrosine solution were added thereto. The resulting mixture was reacted with the addition of 20 μl of mushroom tyrosinase (1,500 units/ml, Sigma) at 37° C. for 20 min. 0.2 ml of the reacted solution was transferred to a 96-well plate, and its absorbance was measured at 490 nm with a microplate reader to obtain the inhibition effect on tyrosinase.
The tyrosinase inhibition effect was calculated according to the following formula 1 by using the absorbance of pure water as a control, and expressed as a percentage.

Primed or numbered codes have the meaning given here. Where no end group is shown, it is not given here. Galloyl′ = not defined here

With `O=C(O)c1cc(O)c(O)c(O)c1` [Gallic acid], the “Free radical scavenging activity (%)” value in assay [1] (10 uM) was 63.1%; in assay [1] (50 uM) it was 70.4%; in assay [1] (100 uM) it was 75.1%. Moreover, the “Inhibition (%)” value with mushroom tyrosinase amounted to 10%.
With `O=C1O[C@H]([C@@H](O)CO)C(O)=C1O` [Vitamin C], the entries for the “Free radical scavenging activity (%)” value in assay [1] (10 uM), in assay [1] (50 uM) and in assay [1] (100 uM) were 55.2%, 68.3% and 72.5%, respectively.
“Digalloyl-Tetrapeptide(Lysyl-Glutamyl-Cysteinyl-Glycine) [Example 2]”: the “Free radical scavenging activity (%)” value in assay [1] (10 uM) is 82.1%; in assay [1] (50 uM), 82.0%; in assay [1] (100 uM), 83.5%. In addition, the “Inhibition (%)” value with mushroom tyrosinase is 52%.
In the case of “Digalloyl-Tetrapeptide(Lysyl-Tyrosyl-Histidyl-Tyrosine) (KYHY; also: digalloyl: two galloyl groups, sites not given here) [Comparative Example 2, soy bean-derived peptide connected to gallic acid]”, the “Inhibition (%)” value with mushroom tyrosinase is 21%.
Consider “Galloyl-Tetrapeptide(Lysyl-Glutamyl-Cysteinyl-Glycine) [Example 1]”, for which the “Free radical scavenging activity (%)” value in assay [1] (10 uM) worked out at 65.8%; in assay [1] (50 uM) it was 78.2%; in assay [1] (100 uM) it was 78.1%. Further, the “Inhibition (%)” value in the assay with mushroom tyrosinase is listed as 40%.
For “Galloyl-Tripeptide(Glutamyl-Cysteinyl-Glycine) [Example 3]”, the “Inhibition (%)” value with mushroom tyrosinase was 34%.
As to “Galloyl-Tripeptide(Tyrosyl-Histidyl-Tyrosine) ({Galloyl′}-Tyr-His-Tyr) [Comparative Example 1, soy bean-derived peptide connected to gallic acid]”, the “Inhibition (%)” value with mushroom tyrosinase was 15%.

These data come from patent publication US8435548B2, “Peptide derivatives and cosmetic composition comprising the same” (Bio-FD&C Co., Ltd, priority 2009, dated 2013).
